Data from ChEMBL document CHEMBL1150889, “Thiomycalolides: new cytotoxic trisoxazole-containing macrolides isolated from a marine sponge Mycale sp” (J Nat Prod, 1998).
In brackets after ≈: the same amount, converted by molar mass.

System: P388
Test: Cytotoxicity against mouse P388 cells
Format: functional, cell-based

Compound	IC50 [µg/mL]
COC(CC1OC(=O)CC(O)CC(SC[C@H](NC(=O)CC[C@H](N)C(=O)O)C(=O)NCC(=O)O)CC(=O)C(C)C(OC)c2coc(n2)-c2coc(n2)-c2coc(n2)/C=C/CC(OC)C1C)C(C)CCC(=O)C(C)C(OC(C)=O)C(C)/C=C/N(C)C=O (some centres not stated) [THIOMYCALOLIDE A]	0.018 (≈ 0.0148 µM)
COCC(OC)C(=O)OC(CCC(C)C(CC1OC(=O)CC(O)CC(SC[C@H](NC(=O)CC[C@H](N)C(=O)O)C(=O)NCC(=O)O)CC(=O)C(C)C(OC)c2coc(n2)-c2coc(n2)-c2coc(n2)/C=C/CC(OC)C1C)OC)C(C)C(OC(C)=O)C(C)/C=C/N(C)C=O (some centres not stated) [THIOMYCALOLIDE B]	0.018 (≈ 0.0135 µM)
